Experiments:
[1] = target: T1, cloned human α2A receptors (Homo sapiens, UniProt P08913); test: In vitro binding affinity for α2A receptors (3H-rauwolscine competition binding); settings: at a test concentration of 10^-8 M or less; CHO cell expressing cloned human α2A receptors
T1 sequence (P08913 1-465): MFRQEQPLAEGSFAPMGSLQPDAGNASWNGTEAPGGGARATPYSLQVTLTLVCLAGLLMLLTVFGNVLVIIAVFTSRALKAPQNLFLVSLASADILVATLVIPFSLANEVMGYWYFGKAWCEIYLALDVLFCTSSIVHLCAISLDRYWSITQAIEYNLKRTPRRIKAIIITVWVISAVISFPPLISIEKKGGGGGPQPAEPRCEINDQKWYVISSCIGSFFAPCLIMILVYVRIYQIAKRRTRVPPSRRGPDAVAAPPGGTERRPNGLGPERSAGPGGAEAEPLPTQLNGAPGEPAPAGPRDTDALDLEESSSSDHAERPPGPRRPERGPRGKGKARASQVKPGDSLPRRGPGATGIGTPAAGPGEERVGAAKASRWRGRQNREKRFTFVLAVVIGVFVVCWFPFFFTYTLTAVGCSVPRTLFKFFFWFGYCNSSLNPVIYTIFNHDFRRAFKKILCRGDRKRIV
Procedure: (§1) The interaction of the compounds of formula (I) with α2 receptors was assessed in in vitro radioligand binding experiments.
(§2) In general, a low concentration of a radioligand with a high binding affinity for a particular receptor is incubated with a sample of a tissue preparation enriched in a particular receptor or with a preparation of cells expressing cloned human receptors in a buffered medium. During the incubation, the radioligand binds to the receptor. When equilibrium of binding is reached, the receptor bound radioactivity is separated from the non-bound radioactivity, and the receptor bound activity is counted. The interaction of the test compounds with the receptor is assessed in competition binding experiments. Various concentrations of the test compound are added to the incubation mixture containing the receptor preparation and the radioligand. Binding of the radioligand will be inhibited by the test compound in proportion to its binding affinity and its concentration.
The radioligand used for α2A receptor binding is ^3 H-rauwolscine and the receptor preparation used is the Chinese Hamster Ovary (CHO) cell expressing cloned human α2A receptors.

[2] = target: T2, cloned human α2B receptors (Homo sapiens, UniProt P18089); test: In vitro binding affinity for α2B receptors (3H-rauwolscine competition binding); settings: at a test concentration of 10^-8 M or less; CHO cell expressing cloned human α2B receptors
T2 construct: expressed in transfected cells; host or cells: CHO cells
T2 sequence (P18089 1-450): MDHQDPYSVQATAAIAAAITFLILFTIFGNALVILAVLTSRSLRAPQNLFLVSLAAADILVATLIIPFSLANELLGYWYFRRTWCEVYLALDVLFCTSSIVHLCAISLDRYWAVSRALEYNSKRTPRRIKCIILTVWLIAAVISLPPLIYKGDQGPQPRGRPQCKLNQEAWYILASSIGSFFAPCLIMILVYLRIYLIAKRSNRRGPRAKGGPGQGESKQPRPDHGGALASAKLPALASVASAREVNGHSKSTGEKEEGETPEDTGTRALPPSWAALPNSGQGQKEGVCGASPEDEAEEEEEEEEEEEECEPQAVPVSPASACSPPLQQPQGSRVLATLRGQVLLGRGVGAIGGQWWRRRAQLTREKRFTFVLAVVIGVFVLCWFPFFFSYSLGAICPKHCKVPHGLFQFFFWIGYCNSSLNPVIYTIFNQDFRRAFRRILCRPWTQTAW
Procedure: as §1, §2
The radioligand used for α2B receptor binding is ^3 H-rauwolscine and the receptor preparation used is the CHO cell expressing cloned human α2B receptors.

α2 -adrenoceptor = test: Xylazine-induced loss of righting reflex in rats; assay type: in vivo; settings: one hour before xylazine 15 mg/kg i.v., male rats, lowest tested dose at which at least 66% of animals showed no loss of righting reflex
Procedure: This test is based upon the fact that centrally acting α2 -adrenoceptor antagonists reverse the loss of righting reflex induced by an intravenous injection of the α2 agonist xylazine. One hour before injection of xylazine (15 mg/kg, i.v.), male rats (200-250 g) were pretreated with a test compound (er os (p.o.) or subcutaneously (s.c.)) or solvent.

[3] = target: T3, cloned human α2C receptors (Homo sapiens, UniProt P18825); test: In vitro binding affinity for α2C receptors (3H-rauwolscine competition binding); settings: at a test concentration of 10^-8 M or less; CHO cell expressing cloned human α2C receptors
T3 construct: expressed in transfected cells; host or cells: CHO cells
T3 sequence (P18825 1-462): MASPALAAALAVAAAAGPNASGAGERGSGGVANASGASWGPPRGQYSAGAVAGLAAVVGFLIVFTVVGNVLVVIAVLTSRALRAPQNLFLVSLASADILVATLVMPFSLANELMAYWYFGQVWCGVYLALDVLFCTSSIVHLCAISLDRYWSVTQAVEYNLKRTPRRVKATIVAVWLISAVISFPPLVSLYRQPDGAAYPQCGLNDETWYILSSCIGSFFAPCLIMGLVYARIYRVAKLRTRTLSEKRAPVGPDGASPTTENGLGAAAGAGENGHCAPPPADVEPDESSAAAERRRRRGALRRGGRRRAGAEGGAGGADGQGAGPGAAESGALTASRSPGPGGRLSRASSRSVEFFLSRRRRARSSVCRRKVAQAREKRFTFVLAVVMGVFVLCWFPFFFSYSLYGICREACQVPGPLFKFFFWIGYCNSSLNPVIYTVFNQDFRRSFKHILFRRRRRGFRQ

| inhibition [1] [%] | inhibition at up to 0.01 µM [2] [%] | inhibition at up to 0.01 µM [3] [%] | Compound | LAD in mg/kg (lowest active dose for xylazine antagonism) (α2 -adrenoceptor; s.c.) [mg/kg] | LAD in mg/kg (lowest active dose for xylazine antagonism) (α2 -adrenoceptor; p.o.) [mg/kg] |
| --- | --- | --- | --- | --- | --- |
| > 50 | > 50 | > 50 | Cc1nc2c(C)cccn2c(=O)c1CCN1CCc2oc3ccccc3c2C1 [Compound 33] | 10.00 |  |
| > 50 | > 50 | > 50 | Cc1nc2ccccn2c(=O)c1CCN1CCc2oc3ccccc3c2C1 [Compound 66] | 0.63 |  |
| > 50 | > 50 | > 50 | O=c1c(CCN2CCc3oc4ccccc4c3C2)c(-c2ccccc2)nc2n1CCCC2 [Compound 10] | 10.00 |  |
| > 50 | > 50 | > 50 | O=c1[nH]c2ccccc2c(=O)n1CCCCN1CCc2oc3ccccc3c2C1 [Compound 63] |  |  |
|  | > 50 |  | Cc1nc2n(C)c(C)cn2c(=O)c1CCN1CCc2oc3ccccc3c2C1 [Compound 30] | 2.50 |  |
| > 50 | > 50 | > 50 | Cc1nc2sc3ccccc3n2c(=O)c1CCN1CCc2oc3ccccc3c2C1 [Compound 62] |  | 10.00 |
| > 50 | > 50 | > 50 | O=c1[nH]c2ccccc2n1CCCN1CCc2oc3ccccc3c2C1 [Compound 53] |  |  |
|  | > 50 |  | Cc1nc2ccc(Br)cn2c(=O)c1CCN1CCc2oc3ccccc3c2C1 [Compound 31] | 0.16 |  |
|  | > 50 |  | CSc1nc(C)c(CCN2CCc3oc4ccccc4c3C2)c(=O)n1C [Compound 56] |  |  |
| > 50 | > 50 | > 50 | O=c1[nH]c2ccccc2n1CCN1CCc2oc3ccccc3c2C1 [Compound 52] | 10.00 |  |

— patent US6156757A, “1,2,3,4-tetrahydro-benzofuro[3,2-C]pyridine derivatives” (Janssen Pharmaceutica N.V., priority 1997, dated 2000)
